# Experimental data: US7153839B2, “Method of protecting erythricytes, in particular for improvement of blood cytopenia” (Biocell Laboratories, priority 2000, dated 2006)
# Key:
# [1] = test system: carrageenan-induced swelling of leg; experiment: Local inflammation (leg swelling) provoked by carrageenan in mice; assay type: in vivo, BALB-line mice; details: for % inhibition of swelling: 0.4 mg per mouse (20 mg/kg), 20 mg/kg
# Method: To study the anti-inflammatory action of drugs, we used the model of local inflammation in mice. Inflammation in BALB-line mice was modeled with the help of carrageenan, a classical phlogogenic agent. 30 minutes before the injection, the mice were injected intra-abdominally with drug, which was dissolved in […] of physiological solution (PS). Carrageenan […] produced by Serva Fein Biochemica (Germany) was prepared in the form of a 1% solution in PS. The obtained viscous solution, 40 mcl, was injected subplantally in the left back leg. The right, intact leg was taken as control. 4 hours later after the carrageenan injection, the mice were killed via decapitation, and their back legs were detached from the bodies on the same level, a little higher the ankles. After that, the legs were carefully weighted, with 1 mg accuracy. Obtained results were statistically processed by the MultiFac 2.2. SPSS 8/0 software. The anti-inflammatory effect of the drug was calculated by the formula:
# [formula] • Vk—average increase of volume (mass) of the swollen leg in control mice • Vo—average increase of volume (mass) of the swollen leg in treated mice
# In the first test, mice were divided into 8 groups. The first group consisted of control animals, which were injected intra-abdominally with 2 ml of PS. Also, […] of PS was injected in the left leg. This group was studied to determine the influence of injection on the course of inflammation in a leg. The second group, control with LPS, took […] of PS intra-abdominally and received LPS injections in the left leg. The third group took […] of aspirin dissolved in PS in the concentration 0.4 mg per mouse. In the fourth, fifth and sixth groups, yeast RNA-D was dissolved in PS in respective concentrations 5, 10, and 15 mg in 2 ml of PS per animal. LPS was injected in the left leg to provoke swelling. The seventh and eighth groups were treated respectively by DNA-TC and DNA-EC, which were injected in the concentration 15 mg per mouse, as explained above for RNA-treated groups.
# The right legs were left intact. 4 hours later, the animals were decapitated. […]
# NO-synthetase (NOS) [2] = experiment: NOS activity in mouse erythrocytes after carrageenan injection; assay type: in vivo; details: 320 min after carrageenan; LPS control 2.232
# Method: (§1) […] We tested the influence of yeast RNA on the activity of NO-synthetase ferment (NOS) in blood plasma and in erythrocytes, as well as on the content in blood plasma of free arachidonic acid and products of its oxide metabolism, carried out in lypoxygenase (leukotriene C4 (LTC4)) and cyclooxygenase (thromboxane B2 (T×B2)) ways.
# (§2) The activity in blood plasma and erythrocytes of the enzyme NO-synthetase was measured by colometric method applied to the outcome of reaction, nitrite anion. (Yan L., Vandivier R. W., Suffredini A. F., Danner R. L., Human polymorphonuclear leukocytes lack detectable nitric oxide synthetase activity. J. Immunol., 15; 153(4): 1825–1834; 1994). […] The reaction was initiated by adding 0.1 ml of a probe containing 500 microgram of general protein determined by Bredford method. […]
# (§3) Nitrite anion was determined using the reagent of Gris in colometric reaction as decribed in Green et al. (Green L. C., Waagner D. A., Glogowski J. et al., Analysis of nitrate, nitrite and [15N] nitrate in biological fluids, Anal. Biochem., 126(1): 131–138;1982). […] In 5 minutes after mixing, the extinction at 543 hm was measured. The quantity of NO2 was measured by standard curve built for NaNO2.
# human thrombocytes = experiment: Aggregation of thrombocytes induced by arachidonic acid in vitro; assay type: cell-based; details: Table 2; 0.06 mg per tube
# Method: We studied the anti-inflammatory action of nucleic acids on the model of thrombocyte aggregation in vitro by the method of Born (Born L.V.R. The aggregation of blood platelets by diphosphate and its reversal, Nature, […], P. 327, 1962). Venous human blood was taken in silicon tubes of Becton Dickson, which contained a 3.8% solution of sodium citrate. In order to receive thrombocytic-rich plasma, citrate blood was centrifuged at 1500 rev/mm for 7 minutes. Plasma free of thrombocytes was obtained by centrifuging 2.0 ml of plasma taken from medium layers for 15 minutes at 3000 rev/mm. We counted the number of thrombocytes in the thrombocytic-containing plasma, which was later diluted by the thrombocyte-free plasma to the final concentration […].
# An Aggregometer produced by “Tromlite” (Poland) was used for thrombocyte aggregation. In order to induce aggregation, arachidonic acid was diluted in Michaelis buffer in the proportion 1 mg/ml. Two tubes were inserted in the aggregometer, one of which contained 0.2 ml of thrombocyte-containing plasma, while the other one had 0.2 ml of thrombocyte-free plasma and 0.1 ml of isotonic solution of sodium chloride. […] Then, the light-transparency of thrombocyte-containing plasma was measured during 5 minutes, which indicated the stage of thrombocyte aggregation. […]
# thromboxane B2 = experiment: Thromboxane B2 in mouse blood plasma after carrageenan injection; assay type: in vivo; details: 320 min after carrageenan; LPS control 358.240
# Method: as §1
# (§4) The content of free arachidonic acid (AA) was measured by two-dimensional thin-layer chromatography (TLC) as discussed in Tsunamoto et al. (Tsunamoto K., Todo S., Imashuku S. Separation of prostaglandines and thromboxane by two-dimensional thin-layer chromatography. J. Chromatog. 3; 417(2); 414–419; 1987. The content of stable metabolite of thromboxane A2 (TXB2) was studied in probes by radio-immune method with TXB2 [^3H] RIA Kit, by Amersham International PLC (England) (McCann D. S., Tokarsky J., Sorkin R. P., Radioimmunoassay for plasma thromboxane B2. Clin. Chem., 27(8): 1417–1420, 1981). The content of LTC4 was tested in probes by radio-immune method with LTC4 [^3H] RIA Kit by Du Pont Ltd. Hertfordshire, (UK) (Levine L., Morgan R. A., Levis R. A. et al., Radioimmunoassay of the leukotrienes of slow reactivity substance of anaphylaxis. Proc. Natl. Acad. Sci. USA. 78(12): 7692–7696; 1981).
# free arachidonic acid = experiment: Free arachidonic acid in mouse blood plasma after carrageenan injection; assay type: in vivo; details: 320 min after carrageenan; LPS control 3.37
# Method: as §1, §4
# myeloperoxydase = experiment: Myeloperoxydase activity in the ischemized part of myocardium; assay type: in vivo, rats; details: 30 minutes occlusion, 1 hour reperfusion; control 211.8+16.7
# From the text: The mieloperoxydase activity (MPA) was studied in myocardium using the method of Bradley et al. (Bradley P. P., Priebet D. A., Christensen R. D. et al., Measurement of cutateous inflammation: estimation of neutrophil content with an enzyme marker, J. Invest. Dermatol., 78(3): 206–209; 1982) in the modification by Grisfwold et al. (Griswold D. E., Hillegass L. M., Hill D. E. et al., Method for quantification of myocardial infarction and inflammatory cell infiltration in rat cardial tissue, J. Pharmacol. Methods, 20(3): 225–235, 1988). For this purpose, the heart was extracted and rinsed in physiological solution, which was cooled to 0° C. After rinsing, a section of myocardium (1 g of the tissue) in the central zone of ischemia was cut out and frozen to −30° C. The final fraction was prepared as a 10% haemogenate with extractive buffer containing 0.5% hexadecyltrimethyl ammonium bromide (pH 6.0) at room temperature. […]
# The upper fraction (30 microliters) was used for a reaction with 0.167 mg/ml of O-dianisodine in 50 millimole/l of potassium phosphate buffer (pH 6.0). […] The reaction had been continuously tested for 5 minutes at 460 hm wave length, and with readings taken every minute. A chart indicating the readings was prepared. A unit of MPA was defined as the quantity of ferment, which destroys 1 micromole/min H2O2 at 25° C. The data was calculated as MPA per 1 gram of tissue. […]
# NO-synthetase (NOS) [3] = experiment: NOS activity in mouse blood plasma after carrageenan injection; assay type: in vivo; details: 320 min after carrageenan; LPS control 110.48
# Method: as §1, §2, §3
# leukotriene C4 = experiment: Leukotriene C4 in mouse blood plasma after carrageenan injection; assay type: in vivo; details: 320 min after carrageenan; LPS control 226.78
structure (smiles),measurement,setting,value
"CC(=O)Oc1ccccc1C(=O)O [Aspirin, aspirin]",% inhibition of swelling,[1],18.03%
same,% inhibition of swelling,[1]; listed as aspirin,18.03%
same,increase of mass of the swollen leg,"[1]; 0.4 mg per mouse intra-abdominally, 4 hours after carrageenan, Control + LPS 43.31",35.5 +
same,"activity of NOS in erythrocytes, M",NO-synthetase (NOS) [2],3.613 picomol per 1 min per 1 mg of protein
same,"inhibition of thrombocyte aggregation (index of aggregation), M",human thrombocytes,38.66%
same,content of thromboxane B2 in blood plasma,thromboxane B2,153.903 picomol per 1 mg of protein
same,content of free arachidonic acid in blood plasma,free arachidonic acid,2.64 nanomol per 1 mg of protein
same,activity of myeloperoxydase in ischemized myocardium,myeloperoxydase,176.1+5.9 units per 1 g of tissue
same,"activity of NOS in blood plasma, M",NO-synthetase (NOS) [3],42.24 picomol per 1 min per 1 mg of protein
same,content of leukotriene C4 in blood plasma,leukotriene C4,93.99 picomol per 1 mg of protein
